This passage reports EC50 results from patent US8822464B2, “N-aryl-piperazine derivatives and their use as positive allosteric modulators of mGluR5 receptors” (Boehringer Ingelheim International GmbH, priority 2011, dated 2014).

Each structure is given as a SMILES string.

The target of the experiment is T1, human recombinant mGluR5 (Homo sapiens, UniProt P41594).
T1 construct: expressed in transfected cells; host or cells: HEK 293 cell line; cultured with tetracycline, hygromycin and geneticin; tetracycline withdrawn 3-7 days before the assay
T1 sequence (P41594 21-1212): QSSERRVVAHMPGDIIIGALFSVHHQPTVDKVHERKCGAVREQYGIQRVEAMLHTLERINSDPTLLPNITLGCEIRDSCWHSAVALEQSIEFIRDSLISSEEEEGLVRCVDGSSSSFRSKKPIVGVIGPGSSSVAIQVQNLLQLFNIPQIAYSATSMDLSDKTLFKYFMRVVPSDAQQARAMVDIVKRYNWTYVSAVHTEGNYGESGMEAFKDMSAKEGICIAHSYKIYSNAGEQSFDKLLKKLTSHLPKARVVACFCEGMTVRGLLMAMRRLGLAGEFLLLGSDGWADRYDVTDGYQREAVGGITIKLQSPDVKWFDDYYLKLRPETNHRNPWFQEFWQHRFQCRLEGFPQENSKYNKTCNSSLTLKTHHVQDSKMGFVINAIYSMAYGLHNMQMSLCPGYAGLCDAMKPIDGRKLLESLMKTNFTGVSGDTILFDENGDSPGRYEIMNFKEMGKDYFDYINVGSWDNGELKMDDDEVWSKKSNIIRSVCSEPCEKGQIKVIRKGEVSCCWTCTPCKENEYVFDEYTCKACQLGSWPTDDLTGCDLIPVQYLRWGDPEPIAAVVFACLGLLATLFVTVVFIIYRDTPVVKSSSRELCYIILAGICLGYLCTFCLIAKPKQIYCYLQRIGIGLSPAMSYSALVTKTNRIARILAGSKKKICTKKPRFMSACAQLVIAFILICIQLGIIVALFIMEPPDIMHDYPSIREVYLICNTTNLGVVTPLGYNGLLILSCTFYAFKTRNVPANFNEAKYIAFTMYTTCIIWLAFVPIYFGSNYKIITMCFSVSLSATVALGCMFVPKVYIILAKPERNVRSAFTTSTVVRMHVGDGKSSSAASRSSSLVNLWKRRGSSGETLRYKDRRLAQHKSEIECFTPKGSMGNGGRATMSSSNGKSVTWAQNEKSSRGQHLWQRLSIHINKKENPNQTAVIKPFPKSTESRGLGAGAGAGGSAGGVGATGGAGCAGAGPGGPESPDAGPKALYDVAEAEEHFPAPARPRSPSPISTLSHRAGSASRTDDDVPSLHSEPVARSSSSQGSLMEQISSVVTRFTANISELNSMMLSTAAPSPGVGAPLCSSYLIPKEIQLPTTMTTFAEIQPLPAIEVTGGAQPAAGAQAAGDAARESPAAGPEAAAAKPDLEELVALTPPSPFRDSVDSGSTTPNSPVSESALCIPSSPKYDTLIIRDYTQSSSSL
Kind of experiment: positive modulation of mGluR5, calcium based FLIPR assay in HEK 293 cells. As to conditions: HEK 293 cell line expressing human recombinant mGluR5; peak height of Ca release fluorescence signal after glutamate at approximately 5% basal stimulation; nonlinear regression. In outline: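 HEK 293 cells expressing human mGluR5, tetracycline-free 3-7 days, Calcium-4 dye-loaded in Ringer solution pH 7.4; 1% DMSO final. Compound added 5 min before glutamate at ~5% of maximal effect; peak Ca2+ fluorescence normalized to basal glutamate (100%) and 10 μM CDPPB (200%); EC50 by nonlinear regression.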
In the case of `CCc1cc(-c2ccc(C)c(C)c2)nn1CC(=O)N1CCN(c2cc(OC)ncn2)CC1` [Example 7.01.93], the EC50 – broadly, the concentration at which the effect is half-maximal – is 170 nM.
In the case of `O=C(Cn1nc(-c2ccccc2)cc1-c1ccccc1)N1CCN(c2ccncn2)CC1` [Example 7.01.08], the EC50 amounted to 349 nM.
Consider `Cc1cnc(-c2cc(-c3ccccc3)n(CC(=O)N3CCN(c4ncccn4)CC3)n2)cc1C` [Example 7.01.135], for which the EC50 came to 21 nM.
On to `O=C(Cn1nc(-c2ccccc2)cc1-c1ccccc1)N1CCN(c2ncncn2)CC1` [Example 7.02.14], for which the EC50 was determined as 129 nM.
In the case of `O=C(Cn1nc(-c2ccccc2)cc1-c1ccccc1)N1CCN(c2cc(C(F)(F)F)ccn2)CC1` [Example 7.02.13], the EC50 came out at 696 nM.
For the compound `Cc1cc(-c2cc(CC(C)C)n(CC(=O)N3CCN(c4ccccn4)CC3)n2)ccc1F` [Example 7.01.117], the EC50 is 28 nM.
For the compound `COc1cc(N2CCN(C(=O)Cn3nc(-c4cc(C)c(F)cn4)cc3-c3ccccc3)CC2)ncn1` [Example 7.01.159], the EC50 amounted to 39 nM.
Consider `CCc1cc(-c2cccc(C)c2)nn1CC(=O)N1CCN(c2cc(OC)ccn2)CC1` [Example 7.01.96], for which the EC50 turned out to be 168 nM.
Then `Cc1cc(-c2cc(C)n(CC(=O)N3CCN(c4cccnn4)CC3)n2)ccc1F` [Example 7.02.24], with 340 nM; and `Cc1cc(-c2cc(-c3ccccc3)n(CC(=O)N3CCN(c4ccccc4)CC3)n2)ccc1F` [Example 7.02.27], with 243 nM.
Then `CCc1cc(-c2ccc(F)cc2)nn1CC(=O)N1CCN(c2cc(OC)ncn2)CC1` [Example 7.01.77], with 697 nM; and `O=C(Cn1nc(-c2ccccc2)cc1-c1ccccc1)N1CCN(c2nccc3ccccc23)CC1` [Example 7.01.07], with 621 nM; and `CCc1cc(-c2ccc(F)c(C)c2)nn1CC(=O)N1CCN(c2cccc(OC)c2)CC1` [Example 7.01.145], with 216 nM.
`COc1cc(N2CCN(C(=O)Cn3nc(-c4ccc(C)c(C)c4)cc3-c3ccccc3)CC2)ncn1` [Example 7.01.101]: the EC50 turned out to be 17 nM.
Take `COc1ccnc(N2CCN(C(=O)Cn3nc(-c4ccc(F)c(C)c4)cc3C)CC2)c1` [Example 7.02.22]: the 50% effective concentration (EC50) is 85 nM.
Then `CCc1cc(-c2cccc(C#N)c2)nn1CC(=O)N1CCN(c2ncccn2)CC1` [Example 7.01.160], with 250 nM; and `CCc1cc(-c2ccc(C)c(C)c2)nn1CC(=O)N1CCN(c2ccccn2)CC1` [Example 7.01.91], with 195 nM; and `CCc1cc(-c2ccc(F)c(C)c2)nn1CC(=O)N1CCN(c2ccccn2)CC1` [Example 7.01.69], with 79 nM.
Then `CCc1cc(-c2cccc(Cl)c2)nn1CC(=O)N1CCN(c2ncccn2)CC1` [Example 7.01.113], with 94 nM.
As to `Cc1cc(-c2cc(C3CCCCC3)n(CC(=O)N3CCN(c4ncccn4)CC3)n2)ccc1F` [Example 7.01.34], the concentration for a half-maximal effect (EC50) was 60 nM.
Then `COc1ccc(-c2cc(C(C)C)n(CC(=O)N3CCN(c4ncccn4)CC3)n2)cc1C` [Example 7.01.54], with 205 nM; and `COc1cc(-c2cc(C(C)C)n(CC(=O)N3CCN(c4ccccn4)CC3)n2)ccc1F` [Example 7.01.49], with 1060 nM.
On to `COCCCc1cc(-c2ccc(F)c(C)c2)nn1CC(=O)N1CCN(c2cc(OC)ccn2)CC1` [Example 7.01.109], for which the concentration for a half-maximal effect (EC50) turned out to be 140 nM.
`O=C(Cn1nc(-c2ccc(OC(F)F)cc2)cc1-c1ccccc1)N1CCN(c2ccccn2)CC1` [Example 7.01.175]: the EC50 came out at 10 nM.
Then `CCCc1cc(-c2ccc(F)c(C)c2)nn1CC(=O)N1CCN(c2cccnn2)CC1` [Example 7.01.84], with 67 nM; and `COc1cc(N2CCN(C(=O)Cn3nc(-c4cccc(C#N)c4)cc3-c3ccccc3)CC2)ncn1` [Example 7.01.170], with 22 nM.
Take `O=C(Cn1nc(-c2ccc(F)cc2)cc1-c1ccc(F)cn1)N1CCN(c2ncccn2)CC1` [Example 7.01.65]: the EC50 is 253 nM.
Then `O=C(Cn1nc(-c2ccc(F)cn2)cc1-c1ccc(F)cc1)N1CCN(c2ncccn2)CC1` [Example 7.01.62], with 48 nM.
